Experimental data taken from patent US9163256B2, “Mutant receptors and their use in a nuclear receptor-based inducible gene expression system” (priority 2004, dated 2015).
Where two headings read alike, the source gives them in different places.

Columns and labels:
Experiment in all cases: cell-based
CfEcR-DEF mutant L132M = CfEcR-DEF mutant L132M (Choristoneura fumiferana, UniProt O77255, L415M); format: cell-based; details: NIH3T3, 40 h, read-out: Rel Max FI, mutant L132M
Procedure: (§1) This construct was prepared in the same way as in switch 1.1 above except wild-type CfEcR-DEF was replaced with mutant CfEcR-DEF comprising a ligand binding domain comprising a substitution mutation selected from Table 1 below.
(§2) DNAs were transfected into mouse NIH3T3 cells (ATCC) as follows. Standard methods for culture and maintenance of the cells were followed. Cells were harvested and plated 96-well plates at 2,500 cells per well, in 50 μL of growth medium containing 10% fetal bovine serum (FBS). Twenty-four hours later, the cells were treated with 35 μL of serum-free growth medium containing either dimethylsulfoxide (DMSO; control) or a DMSO solution of ligand. The cells were then transfected using Superfect (Qiagen Inc.) transfection reagent. For each well, 0.625 μL of Superfect was mixed with 14.2 μL of serum-free growth medium. 0.16 μg of reporter construct and 0.04 μg of each receptor construct were added to the transfection reagent mix. The contents of the transfection mix were mixed in a vortex mixer and let stand at room temperature for 30 minutes. At the end of incubation, 15 μL of transfection mix was added to the cells. The cells were maintained at 37° C. and 5% CO2 for 48 hours in 5% FBS.
(§3) Reporter Assays: Cells were harvested 40 hours after adding ligands. 125 μL of passive lysis buffer (part of Dual-Luciferase reporter assay system from Promega Corporation) were added to each well of the […] plate. The plates were placed on a rotary shaker for 15 minutes. Twenty μL of lysate were assayed. Luciferase activity was measured using Dual-Luciferase reporter assay system from Promega Corporation following the manufacturer's instructions. Fold induction (FI) activities were calculated by dividing relative light units (“RLU”) in ligand treated cells with RLU in DMSO treated cells (untreated control).

CfEcR-DEF mutant A110E = CfEcR-DEF mutant A110E (Choristoneura fumiferana, UniProt O77255, A393E); details: for Emax: NIH3T3, 40 h, read-out: Rel Max FI
CfEcR-DEF mutant A110E, sequence (P28702 299-449, stated change not applied): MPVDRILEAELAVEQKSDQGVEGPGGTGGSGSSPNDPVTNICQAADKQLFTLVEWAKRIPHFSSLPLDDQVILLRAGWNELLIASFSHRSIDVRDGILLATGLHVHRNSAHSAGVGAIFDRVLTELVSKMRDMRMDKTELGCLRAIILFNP
CfEcR-DEF mutant A110E, sequence (O77255 entry or part of it A393E): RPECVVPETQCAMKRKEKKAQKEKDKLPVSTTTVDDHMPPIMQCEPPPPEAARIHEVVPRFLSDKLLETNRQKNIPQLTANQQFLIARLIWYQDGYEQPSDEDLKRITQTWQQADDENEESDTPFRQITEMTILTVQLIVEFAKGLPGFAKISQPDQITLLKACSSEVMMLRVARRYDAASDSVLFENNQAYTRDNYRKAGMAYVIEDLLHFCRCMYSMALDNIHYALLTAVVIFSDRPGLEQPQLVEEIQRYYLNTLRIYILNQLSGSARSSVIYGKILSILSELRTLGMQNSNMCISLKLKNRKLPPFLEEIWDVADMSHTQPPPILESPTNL
Procedure: as §1, §2, §3

CfEcR-DEF mutant M125P = CfEcR-DEF mutant M125P (Choristoneura fumiferana, UniProt O77255, M408P); details: for Emax: NIH3T3, 40 h, read-out: Rel Max FI
CfEcR-DEF mutant M125P, sequence (P28702 299-449): as the sequence (P28702 299-449, stated change not applied) above
CfEcR-DEF mutant M125P, sequence (O77255 entry or part of it M408P): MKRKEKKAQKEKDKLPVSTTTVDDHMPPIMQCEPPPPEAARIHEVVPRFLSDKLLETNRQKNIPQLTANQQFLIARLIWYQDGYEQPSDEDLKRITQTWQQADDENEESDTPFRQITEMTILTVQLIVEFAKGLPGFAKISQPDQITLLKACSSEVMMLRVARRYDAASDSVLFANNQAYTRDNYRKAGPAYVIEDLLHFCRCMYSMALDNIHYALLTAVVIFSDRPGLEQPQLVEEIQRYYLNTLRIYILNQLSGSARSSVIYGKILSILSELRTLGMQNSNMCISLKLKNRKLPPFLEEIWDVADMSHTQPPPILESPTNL
Procedure: as §1, §2, §3

CfEcR-DEF mutant T52L = CfEcR-DEF mutant T52L (Choristoneura fumiferana, UniProt O77255, T335L); details: for Emax: NIH3T3, 40 h, read-out: Rel Max FI
CfEcR-DEF mutant T52L, sequence (P28702 298-449): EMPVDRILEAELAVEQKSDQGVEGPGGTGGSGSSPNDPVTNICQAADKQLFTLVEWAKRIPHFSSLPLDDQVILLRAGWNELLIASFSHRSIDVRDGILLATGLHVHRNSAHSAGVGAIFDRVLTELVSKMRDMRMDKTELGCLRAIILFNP
CfEcR-DEF mutant T52L, sequence (O77255 entry or part of it T335L): as the sequence (O77255 entry or part of it A393E) above, with T129L, E187A counted along it
Procedure: as §1, §2, §3

CfEcR-DEF mutant L234I = CfEcR-DEF mutant L234I (Choristoneura fumiferana, UniProt O77255, L517I); details: for Emax: NIH3T3, 40 h, read-out: Rel Max FI
CfEcR-DEF mutant L234I, sequence (P28702 299-449): as the sequence (P28702 299-449, stated change not applied) above
CfEcR-DEF mutant L234I, sequence (O77255 entry or part of it L517I): as the sequence (O77255 entry or part of it A393E) above, with E187A, L311I counted along it
Procedure: as §1, §2, §3

CfEcR-DEF mutant L132V = CfEcR-DEF mutant L132V (Choristoneura fumiferana, UniProt O77255, L415V); details: for Emax: NIH3T3, 40 h, read-out: Rel Max FI
CfEcR-DEF mutant L132V, sequence (O77255 entry or part of it L415V): as the sequence (O77255 entry or part of it A393E) above, with E187A, L209V counted along it
CfEcR-DEF mutant L132V, sequence (P28702 298-449, further chain): as the sequence (P28702 298-449) above
Procedure: as §1, §2, §3

[1] = target: CfEcR-DEF mutant V128F/A110P (Choristoneura fumiferana, UniProt O77255, A393P/V411F)
CfEcR-DEF mutant V128F/A110P, sequence (P28702 299-449, stated change not applied): as the sequence (P28702 299-449, stated change not applied) above
CfEcR-DEF mutant V128F/A110P, sequence (O77255 entry or part of it A393P/V411F): as the sequence (O77255 entry or part of it M408P) above, with A175P, P190M, V193F counted along it
Procedure: as §1, §2, §3

CfEcR-DEF mutant V96S = CfEcR-DEF mutant V96S (Choristoneura fumiferana, UniProt O77255, V379S); details: for Emax: NIH3T3, 40 h, read-out: Rel Max FI
CfEcR-DEF mutant V96S, sequence (O77255 entry or part of it V379S): as the sequence (O77255 entry or part of it M408P) above, with V161S, P190M counted along it
CfEcR-DEF mutant V96S, sequence (P28702 299-449, further chain): as the sequence (P28702 299-449, stated change not applied) above
Procedure: as §1, §2, §3

CfEcR-DEF mutant R95H = CfEcR-DEF mutant R95H (Choristoneura fumiferana, UniProt O77255, R378H); details: for Emax: NIH3T3, 40 h, read-out: Rel Max FI
CfEcR-DEF mutant R95H, sequence (P28702 299-449): as the sequence (P28702 299-449, stated change not applied) above
CfEcR-DEF mutant R95H, sequence (O77255 entry or part of it R378H): as the sequence (O77255 entry or part of it M408P) above, with R160H, P190M counted along it
Procedure: as §1, §2, §3

[2] = target: CfEcR-DEF mutant N119F/V96T (Choristoneura fumiferana, UniProt O77255, N402F/V379T); details: for Emax: NIH3T3, 40 h, read-out: Rel Max FI
CfEcR-DEF mutant N119F/V96T, sequence (O77255 entry or part of it V379T/N402F): as the sequence (O77255 entry or part of it M408P) above, with V161T, N184F, P190M counted along it
CfEcR-DEF mutant N119F/V96T, sequence (P28702 299-449, further chain): as the sequence (P28702 299-449, stated change not applied) above
Procedure: as §1, §2, §3

CfEcR-DEF mutant F109L = CfEcR-DEF mutant F109L (Choristoneura fumiferana, UniProt O77255, F392L); details: for Emax: NIH3T3, 40 h, read-out: Rel Max FI
CfEcR-DEF mutant F109L, sequence (P28702 299-449): as the sequence (P28702 299-449, stated change not applied) above
CfEcR-DEF mutant F109L, sequence (O77255 entry or part of it F392L): as the sequence (O77255 entry or part of it A393E) above, with F186L, E187A counted along it
Procedure: as §1, §2, §3

CfEcR-DEF mutant M54T = CfEcR-DEF mutant M54T (Choristoneura fumiferana, UniProt O77255, M337T); details: for Emax: NIH3T3, 40 h, read-out: Rel Max FI
CfEcR-DEF mutant M54T, sequence (O77255 entry or part of it M337T): as the sequence (O77255 entry or part of it A393E) above, with M131T, E187A counted along it
CfEcR-DEF mutant M54T, sequence (P28702 299-449, further chain): as the sequence (P28702 299-449, stated change not applied) above
Procedure: as §1, §2, §3

CfEcR-DEF mutant M125R = CfEcR-DEF mutant M125R (Choristoneura fumiferana, UniProt O77255, M408R); details: for Emax: NIH3T3, 40 h, read-out: Rel Max FI
CfEcR-DEF mutant M125R, sequence (P28702 299-449): as the sequence (P28702 299-449, stated change not applied) above
CfEcR-DEF mutant M125R, sequence (O77255 entry or part of it M408R): as the sequence (O77255 entry or part of it M408P) above, with P190R counted along it
Procedure: as §1, §2, §3

CfEcR-DEF mutant M125L = CfEcR-DEF mutant M125L (Choristoneura fumiferana, UniProt O77255, M408L); details: for Emax: NIH3T3, 40 h, read-out: Rel Max FI
CfEcR-DEF mutant M125L, sequence (P28702 299-449): as the sequence (P28702 299-449, stated change not applied) above
CfEcR-DEF mutant M125L, sequence (O77255 entry or part of it M408L): as the sequence (O77255 entry or part of it M408P) above, with P190L counted along it
Procedure: as §1, §2, §3

[3] = target: CfEcR-DEF mutant V107I/Y127E/A110P (Choristoneura fumiferana, UniProt O77255, A393P/V390I/Y410E); details: for Emax: NIH3T3, 40 h, read-out: Rel Max FI
CfEcR-DEF mutant V107I/Y127E/A110P, sequence (P28702 299-449, stated change not applied): as the sequence (P28702 299-449, stated change not applied) above
CfEcR-DEF mutant V107I/Y127E/A110P, sequence (O77255 entry or part of it V390I/A393P/Y410E): as the sequence (O77255 entry or part of it M408P) above, with V172I, A175P, P190M, Y192E counted along it
Procedure: as §1, §2, §3

CfEcR-DEF mutant M92E = CfEcR-DEF mutant M92E (Choristoneura fumiferana, UniProt O77255, M375E); details: for Emax: NIH3T3, 40 h, read-out: Rel Max FI
CfEcR-DEF mutant M92E, sequence (P28702 299-449): as the sequence (P28702 299-449, stated change not applied) above
CfEcR-DEF mutant M92E, sequence (O77255 entry or part of it M375E): as the sequence (O77255 entry or part of it A393E) above, with M169E, E187A counted along it
Procedure: as §1, §2, §3

CfEcR-DEF mutant M125C = CfEcR-DEF mutant M125C (Choristoneura fumiferana, UniProt O77255, M408C); details: for EC50: EC50, mutant M125C; for Emax: NIH3T3, 40 h, read-out: Rel Max FI
CfEcR-DEF mutant M125C, sequence (O77255 entry or part of it M408C): as the sequence (O77255 entry or part of it A393E) above, with E187A, M202C counted along it
CfEcR-DEF mutant M125C, sequence (P28702 299-449, further chain): as the sequence (P28702 299-449, stated change not applied) above
Procedure: as §1, §2, §3

CfEcR-DEF mutant F109W = CfEcR-DEF mutant F109W (Choristoneura fumiferana, UniProt O77255, F392W); details: for Emax: NIH3T3, 40 h, read-out: Rel Max FI
CfEcR-DEF mutant F109W, sequence (O77255 entry or part of it F392W): as the sequence (O77255 entry or part of it A393E) above, with F186W, E187A counted along it
CfEcR-DEF mutant F109W, sequence (P28702 299-449, further chain): as the sequence (P28702 299-449, stated change not applied) above
Procedure: as §1, §2, §3

[4] = relative to max fold induction of GS-E ligand

CfEcR-DEF mutant L132M, sequence (O77255 entry or part of it L415M): as the sequence (O77255 entry or part of it A393E) above, with E187A, L209M counted along it
CfEcR-DEF mutant L132M, sequence (P28702 298-449, further chain): as the sequence (P28702 298-449) above

| Structure (SMILES) | Emax (CfEcR-DEF mutant L132M) [%] | Emax (CfEcR-DEF mutant L132M; [4]) [%] | EC50 (CfEcR-DEF mutant A110E) [µM] | Emax (CfEcR-DEF mutant A110E) [%] | EC50 (CfEcR-DEF mutant M125P) [µM] | Emax (CfEcR-DEF mutant M125P) [%] | EC50 (CfEcR-DEF mutant T52L) [µM] | Emax (CfEcR-DEF mutant T52L) [%] | EC50 (CfEcR-DEF mutant L234I) [µM] | Emax (CfEcR-DEF mutant L234I) [%] | EC50 (CfEcR-DEF mutant L132V) [µM] | Emax (CfEcR-DEF mutant L132V) [%] | EC50 (CfEcR-DEF mutant V96S) [µM] | Emax (CfEcR-DEF mutant V96S) [%] | EC50 (CfEcR-DEF mutant R95H) [µM] | Emax (CfEcR-DEF mutant R95H) [%] | EC50 [2] [µM] | Emax [2] [%] | EC50 (CfEcR-DEF mutant F109L) [µM] | Emax (CfEcR-DEF mutant F109L) [%] | other results |
| --- | --- | --- | --- | --- | --- | --- | --- | --- | --- | --- | --- | --- | --- | --- | --- | --- | --- | --- | --- | --- | --- |
| CCc1cccc(C(=O)NN(C(=O)c2cc(C)cc(C)c2)C(C)(C)C)c1C [RG-101691, 3,5-Dimethyl-benzoic acid N-tert-butyl-N′-(3-ethyl-2-methyl-benzoyl)-hydrazide] | 8 | 77 | 0.85 | 103 | > 33 | 525 | 0.21 | 74 | 0.94 | 73 | 0.66 | 77 | 0.87 | 90 | 3.9 | 96 | 3.63 | 13 | 2.34 | 68 | EC50 [1]: ~5 µM; Emax ([1]; NIH3T3, 40 h, read-out: Rel Max FI): 8%; Rel Max FI ([1]; mutant V128F/A110P, 2400 min): 0.08; EC50 (CfEcR-DEF mutant M54T): 0.03 µM; Emax (CfEcR-DEF mutant M54T): 71%; EC50 (CfEcR-DEF mutant M125R): ~10 µM; Emax (CfEcR-DEF mutant M125R): 1%; EC50 (CfEcR-DEF mutant M125L): > 33 µM; Emax (CfEcR-DEF mutant M125L): 0%; EC50 [3]: 0.34 µM; Emax [3]: 96%; EC50 (CfEcR-DEF mutant M92E): ~20 µM; Emax (CfEcR-DEF mutant M92E): 8%; EC50 (CfEcR-DEF mutant M125C): ≥ 33 µM; Emax (CfEcR-DEF mutant M125C): 62%; EC50 (CfEcR-DEF mutant F109W): 0.49 µM; Emax (CfEcR-DEF mutant F109W): 79% |
| Cc1cc(C)cc(C(=O)N(NC(=O)c2cccc(C(C)C)c2C)C(C)(C)C)c1 [RG-102362, 3,5-Dimethyl-benzoic acid N-tert-butyl-N′-(3-isopropyl-2-methyl-benzoyl)-hydrazide] | 1 | 66 | 1.02 | 78 | > 33 | 78 | 0.33 | 61 | 2.46 | 44 | 0.29 | 74 | 2.07 | 57 | 3.49 | 62 | ~10 | 19 | ~2.5 | 17 | EC50 (CfEcR-DEF mutant M54T): 0.05 µM; Emax (CfEcR-DEF mutant M54T): 66%; EC50 (CfEcR-DEF mutant M125R): 10.4 µM; Emax (CfEcR-DEF mutant M125R): 0%; EC50 (CfEcR-DEF mutant M125L): > 33 µM; Emax (CfEcR-DEF mutant M125L): 1%; EC50 [3]: 0.1 µM; Emax [3]: 63%; EC50 (CfEcR-DEF mutant M92E): > 33 µM; Emax (CfEcR-DEF mutant M92E): 4%; EC50 (CfEcR-DEF mutant M125C): ≥ 33 µM; Emax (CfEcR-DEF mutant M125C): 15%; EC50 (CfEcR-DEF mutant F109W): 1.41 µM; Emax (CfEcR-DEF mutant F109W): 70% |
